According to patent US20230355646A1, “AUTOPHAGY ACTIVATOR” (Resonac Corporation, priority 2020, published 2023):

System: LC3 gene
Assay: LC3 gene expression promoting effect in human neuroblastoma SH-SY5Y in the presence of amyloid β
Type: cell-based
Protocol: In the presence of an autophagy activator, the expression levels of the LC3 gene, ATG5 gene, and ATG7 gene in human neuroblastoma (SH-SY5Y; obtained from ATCC) were measured by the following test method, and the effect of promoting the expression of the LC3 gene, ATG5 gene, and ATG7 gene by an autophagy activator was evaluated.
In the following examples and comparative examples, tests were performed by adding amyloid β, which is known to cause a decrease in autophagy in nerve cells, to each medium.
SH-SY5Y cells were prepared at a seeding density of 10000 cells/cm^2 and cultured for 24 hours in D-MEM medium/Ham's F-12 medium (manufactured by Sigma-Aldrich) to which 10% fetal bovine serum (manufactured by MP Biomedicals) was added. Next, in Example 15, the methyl hesperidin DMSO solution was added to the medium such that the final concentration of methyl hesperidin was 10^−3% (V/V) and the final concentration of DMSO was 0.1% (V/V). […]
Then, using Nucleospin (registered trademark) RNA kit (manufactured by Takara Bio Inc.), RNA was extracted from SH-SY5Y cells in each example, and cDNA was synthesized from the obtained RNA. Next, using this cDNA as a template, by quantitative real-time PCR, the expression level of each gene was quantified using primers (manufactured by Takara Bio Inc.) specific to the LC3 gene, ATG5 gene, and ATG7 gene, respectively. […]

Compound: COc1ccc([C@@H]2CC(=O)c3c(O)cc(O[C@@H]4O[C@H](CO[C@@H]5O[C@@H](C)[C@H](O)[C@@H](O)[C@H]5O)[C@@H](O)[C@H](O)[C@H]4O)cc3O2)cc1O [Comparative Example 2, hesperidin]
- expression level of the LC3 gene (in words) (SH-SY5Y cells with amyloid β, compared to DMSO and amyloid β of Comparative Example 5): increased
- Relative gene expression level LC3 (SH-SY5Y cells, 20 μM amyloid β present, 10^−2% (V/V) methyl hesperidin or hesperidin, additional ingredient where in the example, 48 hours, Reference Example 3 = 1.00): 2.41
